These are literature values, as cited in US20250099408A1, “IMPROVED SURAMIN METHODS AND COMPOSITIONS” (priority 2022, published 2025).

This series has as its system HIV. The following applies: suramin 1 g IV.

As to `Cc1ccc(C(=O)Nc2ccc(S(=O)(=O)O)c3cc(S(=O)(=O)O)cc(S(=O)(=O)O)c23)cc1NC(=O)c1cccc(NC(=O)Nc2cccc(C(=O)Nc3cc(C(=O)Nc4ccc(S(=O)(=O)O)c5cc(S(=O)(=O)O)cc(S(=O)(=O)O)c45)ccc3C)c2)c1` [suramin], the “clinical improvement of the patients” value is listed as “did not give clinical improvements”. Besides, for the setting “HIV patients”, the “virus in the blood circulation” value was “almost clearing the virus from the blood circulation”.
